Measurements: ChEMBL document CHEMBL4330088, “Targeting the immunity protein kinases for immuno-oncology” (Eur J Med Chem, 2019)
Each block holds one molecule with its values, some of them ahead of it.

Key:
[1] = molecular target: T1, Tyrosine-protein kinase JAK3 (Homo sapiens, UniProt P52333); experiment: Inhibition of JAK3 in human Jurkat cells assessed as reduction in IFN-alpha stimulated JAK3 phosphorylation by […] Western blot analysis; format: cell-based
T1 sequence (P52333 whole entry): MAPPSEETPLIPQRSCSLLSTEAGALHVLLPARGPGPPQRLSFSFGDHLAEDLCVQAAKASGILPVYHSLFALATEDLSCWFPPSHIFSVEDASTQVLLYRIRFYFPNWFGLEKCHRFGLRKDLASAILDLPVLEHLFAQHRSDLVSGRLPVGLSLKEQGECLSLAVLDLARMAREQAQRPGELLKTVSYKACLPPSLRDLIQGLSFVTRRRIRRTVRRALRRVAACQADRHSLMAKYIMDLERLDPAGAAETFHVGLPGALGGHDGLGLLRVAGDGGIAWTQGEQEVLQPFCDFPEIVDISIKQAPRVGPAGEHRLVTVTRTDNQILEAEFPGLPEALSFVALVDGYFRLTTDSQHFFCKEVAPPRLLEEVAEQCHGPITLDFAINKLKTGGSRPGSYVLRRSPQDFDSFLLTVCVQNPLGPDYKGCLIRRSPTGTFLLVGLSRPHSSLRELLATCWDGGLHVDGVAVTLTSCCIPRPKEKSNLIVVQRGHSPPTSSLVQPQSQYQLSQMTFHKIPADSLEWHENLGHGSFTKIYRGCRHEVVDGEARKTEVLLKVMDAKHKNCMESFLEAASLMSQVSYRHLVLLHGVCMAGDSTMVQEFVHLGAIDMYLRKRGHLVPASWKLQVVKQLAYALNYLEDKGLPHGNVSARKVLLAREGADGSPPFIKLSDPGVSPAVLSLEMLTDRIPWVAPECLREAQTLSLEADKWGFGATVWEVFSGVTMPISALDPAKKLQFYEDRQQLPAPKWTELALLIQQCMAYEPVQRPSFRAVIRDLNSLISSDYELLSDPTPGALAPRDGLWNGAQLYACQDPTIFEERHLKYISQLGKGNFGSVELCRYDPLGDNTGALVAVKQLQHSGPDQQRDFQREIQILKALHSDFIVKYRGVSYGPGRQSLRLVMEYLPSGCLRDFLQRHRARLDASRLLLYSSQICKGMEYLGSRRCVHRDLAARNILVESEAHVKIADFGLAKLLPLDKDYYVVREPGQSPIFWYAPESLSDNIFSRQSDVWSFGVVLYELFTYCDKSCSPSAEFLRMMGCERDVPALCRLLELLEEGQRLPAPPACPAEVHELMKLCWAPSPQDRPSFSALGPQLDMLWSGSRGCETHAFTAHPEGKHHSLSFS

[2] = molecular target: Non-receptor tyrosine-protein kinase TYK2 (Homo sapiens, UniProt P29597); experiment: Inhibition of TYK2 in human Jurkat cells assessed as reduction in IFN-alpha stimulated TYK2 phosphorylation by […] Western blot analysis; format: cell-based
[3] = molecular target: Tyrosine-protein kinase JAK1 (Homo sapiens, UniProt P23458); experiment: Inhibition of JAK1 in human Jurkat cells assessed as reduction in IFN-alpha stimulated JAK1 phosphorylation by […] Western blot analysis; format: cell-based
[4] = molecular target: T2, Interleukin-1 receptor-associated kinase 4 (Homo sapiens, UniProt Q9NWZ3); experiment: Inhibition of IRAK4 (unknown origin)
T2 sequence (Q9NWZ3 whole entry): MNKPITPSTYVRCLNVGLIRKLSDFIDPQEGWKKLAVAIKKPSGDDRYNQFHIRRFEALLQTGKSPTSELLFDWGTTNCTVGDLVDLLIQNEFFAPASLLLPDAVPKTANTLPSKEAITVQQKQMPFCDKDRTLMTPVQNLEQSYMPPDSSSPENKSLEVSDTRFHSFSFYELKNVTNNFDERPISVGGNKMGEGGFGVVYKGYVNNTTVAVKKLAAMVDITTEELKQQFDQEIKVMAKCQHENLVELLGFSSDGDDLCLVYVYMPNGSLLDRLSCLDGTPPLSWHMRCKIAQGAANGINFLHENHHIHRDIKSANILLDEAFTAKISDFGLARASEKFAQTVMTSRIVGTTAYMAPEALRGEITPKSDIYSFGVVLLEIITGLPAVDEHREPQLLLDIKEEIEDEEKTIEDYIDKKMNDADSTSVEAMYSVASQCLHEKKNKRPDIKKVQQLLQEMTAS

[5] = Half life of compound in human PBMC; format: ADME, cell-based
[6] = molecular target: PI3K p110 beta/p85 alpha (Homo sapiens, UniProt P42338); experiment: Inhibition of human full length recombinant N-terminal His-tagged PI3Kbeta/p85alpha expressed in baculovirus infected Sf21 insect cells
[7] = molecular target: Phosphatidylinositol 4,5-bisphosphate 3-kinase catalytic subunit gamma isoform (Homo sapiens, UniProt P48736); experiment: Inhibition of PI3Kgamma (unknown origin)
[8] = species: Homo sapiens; experiment: Selectivity ratio of IC50 for PI3Kdelta (unknown origin) to IC50 for PI3Kgamma (unknown origin)
[9] = species: Homo sapiens; experiment: Selectivity ratio of IC50 for PI3Kdelta (unknown origin) to IC50 for human N-terminal His-tagged PI3Kalpha/p85alpha
[10] = molecular target: PI3-kinase p110-alpha/p85-alpha (Homo sapiens, UniProt P42336); experiment: Inhibition of human N-terminal His-tagged PI3Kalpha/p85alpha expressed in Spodoptera frugiperda using phosphatidylinositol as substrate
[11] = species: Homo sapiens; experiment: Selectivity ratio of IC50 for PI3Kdelta (unknown origin) to IC50 for human full length recombinant N-terminal His-tagged PI3Kbeta/p85alpha
[12] = molecular target: MAP kinase-interacting serine/threonine-protein kinase 1/2 (Homo sapiens) (UniProt Q9HBH9+Q9BUB5); experiment: Inhibition of MNK in human PBMC assessed as reduction in eIF4E phosphorylation at 200 mg after 24 hrs relative to control

Sequence of Phosphatidylinositol 4,5-bisphosphate 3-kinase catalytic subunit gamma isoform (P48736 whole entry, canonical isoform): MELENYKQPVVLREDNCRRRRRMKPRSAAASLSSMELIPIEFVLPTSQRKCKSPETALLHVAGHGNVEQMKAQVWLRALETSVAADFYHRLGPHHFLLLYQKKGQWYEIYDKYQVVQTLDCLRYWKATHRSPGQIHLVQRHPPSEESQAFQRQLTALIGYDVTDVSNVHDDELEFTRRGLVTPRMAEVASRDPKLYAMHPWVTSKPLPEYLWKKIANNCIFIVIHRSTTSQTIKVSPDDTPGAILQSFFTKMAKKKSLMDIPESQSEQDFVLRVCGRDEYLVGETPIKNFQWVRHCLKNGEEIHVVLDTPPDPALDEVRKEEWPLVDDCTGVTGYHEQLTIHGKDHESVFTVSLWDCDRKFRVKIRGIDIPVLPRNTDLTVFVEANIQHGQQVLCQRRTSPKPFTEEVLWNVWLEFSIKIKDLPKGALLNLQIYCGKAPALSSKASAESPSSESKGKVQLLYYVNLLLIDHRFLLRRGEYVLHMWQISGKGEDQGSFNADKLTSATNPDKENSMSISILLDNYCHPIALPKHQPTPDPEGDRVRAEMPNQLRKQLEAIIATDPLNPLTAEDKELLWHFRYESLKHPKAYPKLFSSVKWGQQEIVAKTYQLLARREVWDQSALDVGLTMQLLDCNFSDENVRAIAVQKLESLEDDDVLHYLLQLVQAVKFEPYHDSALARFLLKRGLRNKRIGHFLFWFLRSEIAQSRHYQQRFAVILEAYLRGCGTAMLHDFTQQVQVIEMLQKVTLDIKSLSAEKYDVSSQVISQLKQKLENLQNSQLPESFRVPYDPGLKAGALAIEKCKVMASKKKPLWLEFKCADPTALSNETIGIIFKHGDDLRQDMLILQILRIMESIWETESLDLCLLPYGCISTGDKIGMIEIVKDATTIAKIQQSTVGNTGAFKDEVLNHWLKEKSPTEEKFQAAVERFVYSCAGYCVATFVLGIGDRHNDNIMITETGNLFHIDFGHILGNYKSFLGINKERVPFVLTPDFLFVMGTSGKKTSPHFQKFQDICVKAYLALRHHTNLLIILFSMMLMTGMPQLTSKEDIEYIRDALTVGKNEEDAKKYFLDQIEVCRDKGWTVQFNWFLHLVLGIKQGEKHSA
Sequence of PI3K p110 beta/p85 alpha (P27986 whole entry, canonical isoform): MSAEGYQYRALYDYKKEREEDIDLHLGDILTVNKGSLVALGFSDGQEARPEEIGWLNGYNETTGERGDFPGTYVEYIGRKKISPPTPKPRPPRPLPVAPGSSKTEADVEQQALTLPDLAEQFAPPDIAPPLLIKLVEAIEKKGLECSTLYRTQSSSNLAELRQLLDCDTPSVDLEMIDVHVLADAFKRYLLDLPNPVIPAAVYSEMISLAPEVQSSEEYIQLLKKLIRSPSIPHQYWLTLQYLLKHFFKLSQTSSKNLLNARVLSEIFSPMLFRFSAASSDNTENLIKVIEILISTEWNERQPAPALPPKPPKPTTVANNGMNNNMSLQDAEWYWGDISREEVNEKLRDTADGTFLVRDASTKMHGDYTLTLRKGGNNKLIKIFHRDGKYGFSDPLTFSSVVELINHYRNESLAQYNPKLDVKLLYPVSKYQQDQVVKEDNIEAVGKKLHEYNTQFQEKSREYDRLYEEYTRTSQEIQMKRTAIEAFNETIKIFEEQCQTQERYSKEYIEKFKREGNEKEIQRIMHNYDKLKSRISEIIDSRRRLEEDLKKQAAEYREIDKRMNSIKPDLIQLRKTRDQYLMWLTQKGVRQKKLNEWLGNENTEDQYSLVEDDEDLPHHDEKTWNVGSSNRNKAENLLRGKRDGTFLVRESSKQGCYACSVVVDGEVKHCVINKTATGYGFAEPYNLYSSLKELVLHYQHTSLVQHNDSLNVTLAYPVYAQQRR
Sequence of PI3K p110 beta/p85 alpha (P42338 whole entry, canonical isoform): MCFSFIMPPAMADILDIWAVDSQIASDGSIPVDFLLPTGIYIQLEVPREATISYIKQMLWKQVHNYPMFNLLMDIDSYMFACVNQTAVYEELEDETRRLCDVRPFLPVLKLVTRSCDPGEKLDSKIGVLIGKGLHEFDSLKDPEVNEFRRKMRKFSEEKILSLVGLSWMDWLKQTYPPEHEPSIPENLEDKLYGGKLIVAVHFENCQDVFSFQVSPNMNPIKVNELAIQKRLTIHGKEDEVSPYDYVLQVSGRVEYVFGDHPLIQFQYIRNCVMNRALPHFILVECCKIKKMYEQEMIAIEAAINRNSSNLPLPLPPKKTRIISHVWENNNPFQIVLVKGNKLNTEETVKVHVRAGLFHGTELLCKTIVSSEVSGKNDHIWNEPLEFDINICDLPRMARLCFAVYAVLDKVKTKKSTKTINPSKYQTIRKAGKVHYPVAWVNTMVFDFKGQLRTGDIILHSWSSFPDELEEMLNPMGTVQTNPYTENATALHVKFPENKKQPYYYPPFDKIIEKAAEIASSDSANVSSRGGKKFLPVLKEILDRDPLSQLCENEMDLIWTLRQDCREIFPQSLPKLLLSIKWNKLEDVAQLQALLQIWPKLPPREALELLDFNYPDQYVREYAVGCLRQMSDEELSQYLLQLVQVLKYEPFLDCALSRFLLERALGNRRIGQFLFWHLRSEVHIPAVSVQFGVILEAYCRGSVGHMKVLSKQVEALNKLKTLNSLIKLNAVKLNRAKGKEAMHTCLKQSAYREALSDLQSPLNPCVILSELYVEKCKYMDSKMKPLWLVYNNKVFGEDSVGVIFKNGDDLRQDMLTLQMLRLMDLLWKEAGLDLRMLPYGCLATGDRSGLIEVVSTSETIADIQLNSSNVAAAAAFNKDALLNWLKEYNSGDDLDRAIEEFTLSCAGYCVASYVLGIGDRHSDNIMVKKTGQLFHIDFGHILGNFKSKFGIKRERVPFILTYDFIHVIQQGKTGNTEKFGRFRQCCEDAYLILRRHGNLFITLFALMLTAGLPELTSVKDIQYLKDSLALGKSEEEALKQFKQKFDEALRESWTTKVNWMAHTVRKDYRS
Sequence of PI3-kinase p110-alpha/p85-alpha (P27986 whole entry): as the sequence (P27986 whole entry, canonical isoform) above
Sequence of PI3-kinase p110-alpha/p85-alpha (P42336 whole entry): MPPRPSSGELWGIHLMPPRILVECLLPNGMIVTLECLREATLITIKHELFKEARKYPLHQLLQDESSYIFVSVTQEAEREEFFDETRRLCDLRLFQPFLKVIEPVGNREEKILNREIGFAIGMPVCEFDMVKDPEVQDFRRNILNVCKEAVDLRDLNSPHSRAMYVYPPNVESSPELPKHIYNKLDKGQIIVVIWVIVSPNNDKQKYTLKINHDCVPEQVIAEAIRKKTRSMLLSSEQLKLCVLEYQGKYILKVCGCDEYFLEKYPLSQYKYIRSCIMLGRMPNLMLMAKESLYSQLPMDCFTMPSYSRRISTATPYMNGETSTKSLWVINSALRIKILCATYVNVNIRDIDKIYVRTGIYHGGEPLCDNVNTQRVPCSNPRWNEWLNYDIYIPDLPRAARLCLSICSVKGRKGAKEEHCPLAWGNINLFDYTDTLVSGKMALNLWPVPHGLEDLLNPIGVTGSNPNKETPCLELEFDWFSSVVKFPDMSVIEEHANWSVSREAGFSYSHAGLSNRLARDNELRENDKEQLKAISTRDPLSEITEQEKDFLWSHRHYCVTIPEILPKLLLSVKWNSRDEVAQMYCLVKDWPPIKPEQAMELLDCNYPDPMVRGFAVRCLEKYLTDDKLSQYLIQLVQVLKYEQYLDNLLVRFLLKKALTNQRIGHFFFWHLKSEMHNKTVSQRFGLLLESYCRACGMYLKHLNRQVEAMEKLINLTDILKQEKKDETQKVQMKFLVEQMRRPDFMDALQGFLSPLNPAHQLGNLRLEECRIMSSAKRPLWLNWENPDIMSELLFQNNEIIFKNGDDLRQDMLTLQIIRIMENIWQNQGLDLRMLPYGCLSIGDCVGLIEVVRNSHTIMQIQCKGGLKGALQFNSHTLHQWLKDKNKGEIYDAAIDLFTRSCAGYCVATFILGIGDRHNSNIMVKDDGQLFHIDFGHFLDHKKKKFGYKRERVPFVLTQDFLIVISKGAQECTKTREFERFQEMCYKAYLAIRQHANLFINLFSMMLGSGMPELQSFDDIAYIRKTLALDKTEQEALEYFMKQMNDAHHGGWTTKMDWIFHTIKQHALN

SMILES: NC(=O)c1nc(-c2c(F)cccc2Cl)oc1Nc1ccc(C(=O)N2CCOCC2)cc1
IC50 [1]: 41 nM
IC50 [2]: 0.6 nM
IC50 [3]: 23 nM

SMILES: CC[C@@H]1[C@H](F)C(=O)N[C@@H]1COc1cccc2cc(C(N)=O)c(OC)cc12
IC50 [4]: 0.2 nM

SMILES: N#Cc1ccc(-c2cnc3ccc(-c4ccc(C(=O)N5CCOCC5)cc4)cn23)cc1 [TINODASERTIB]
half-life [5]: 25 h

SMILES: CC(C)Oc1ccc(-c2nn([C@@H](C)c3oc4ccc(F)cc4c(=O)c3-c3cccc(F)c3)c3ncnc(N)c23)cc1F [UMBRALISIB]
IC50 [6]: > 10000 nM
IC50 [10]: > 10000 nM
IC50 [7]: 1400 nM

SMILES: Cc1cc(Nc2cc(N)ncn2)c(=O)n2c1C(=O)NC21CCCCC1.Cl [TOMIVOSERTIB HYDROCHLORIDE]
inhibition [12]: 85%
half-life [5]: 11 h

Next, values leading:

IC50 [6]: 3750 nM
IC50 [7]: 2300 nM
SMILES: Cc1csc2nc([C@H](C)Nc3ncnc4[nH]cnc34)c(-c3cccc(F)c3)c(=O)n12 [DEZAPELISIB]

IC50 [6]: 1080 nM
Ratio IC50 [8]: > 72
Ratio IC50 [9]: > 72
IC50 [10]: 2300 nM
IC50 [7]: > 10000 nM
Ratio IC50 [11]: > 72
SMILES: Fc1ccc2[nH]ccc2c1-c1nc(N2CCOCC2)c2sc(CN3CCN(CC4CC4)CC3)cc2n1

IC50 [4]: 7.5 nM
SMILES: NC(=O)C[C@H]1CCc2sc3ncnc(O[C@H]4CC[C@H](N5CCOCC5)CC4)c3c21
